Assay results: patent US20240197756A1, “METHODS OF TREATMENT WITH NEUROACTIVE STEROIDS” (priority 2021, published 2024)

What was measured:
[1] = Khodadoustan et al. (2017); cited from earlier work
[2] = tested on: GABAA receptors in the brain; details: cited from earlier work; for power of the alpha-band frequency (qEEG): comparator GABAA PAMs, previously shown (FIG. 7); for beta-band frequency (qEEG): comparator marketed GABAA PAMs, previously shown
[3] = tested on: extrasynaptic form of GABAA receptors; details: cited from earlier work
harmaline-induced tremor = test: rHIT model, coadministration of Compound 1 and Compound 2; assay type: in vivo, rat; details: Compound 2 p.o. 60 min before harmaline
Procedure: Rat Harmaline Induced Tremor (rHIT): The rHIT model was used to assess the impact of the combination of Compound 1 and Compound 2 on reducing the symptoms of tremor. Male SD rats (SLAC, Shanghai, China) weighing about 250 g at the time of testing were housed in a 12:12 light-dark cycle room throughout the study, with the lights on from 5 a.m. to 5 p.m, and fed ad libitum. […]
The rHIT methods described in Example 5 were used. […] After the 20-minute baseline recording, rats were dosed with harmaline and the post-harmaline effect was measured for 20 minutes. […]

For `CCOC(=O)C1=C(COCCN)NC(C)=C(C(=O)OC)C1c1ccccc1Cl` (centres unmarked) [amlodipine besylate], the “Cmax, evening administration compared to morning dosing” value [1] is given as “increased” and the “Tmax, evening administration compared to morning dosing” value [1] is given as “reduced”.

For `O=C1Nc2ccc(Cl)cc2C(c2ccccc2Cl)=NC1O` (centres unmarked) [lorazepam], the “power of the alpha-band frequency (qEEG)” value [2] is listed as “decrease” and the “beta-band frequency (qEEG)” value [2] is listed as “Increases”.

For `CC(=O)[C@H]1CC[C@H]2[C@@H]3CC[C@H]4C[C@H](O)CC[C@]4(C)[C@H]3CC[C@]12C` [allopregnanolone], the “potency at synaptic and extrasynaptic receptors” value [3] is listed as “equipotent”, the “power of the alpha-band frequency (qEEG)” value [2] is listed as “decrease” and the “beta-band frequency (qEEG)” value [2] is listed as “Increases”.

For `CC(C)(C)NC(=O)CN1CCC(CNC(=O)c2cc(F)cc(Cl)c2)CC1` [Compound 2, N-((1-(2-(tert-butylamino)-2-oxoethyl)piperidine-4-yl)methyl)-3chloro-5-fluorobenzamide], the effect on tremor (harmaline-induced tremor) was “tremor-reducing effects”.
